Data on 34 molecules can be found in patent publication US8324390B2, “Tetrazole-substituted anthranilamides as pesticides” (Bayer CropScience AG, priority 2008, dated 2012).

Molecules are shown by their SMILES. Read-outs that look alike come from different tables or passages of the source.

Data set [1] in a line: log P determination by HPLC (EEC Directive 79/831 Annex V.A8). It counts as physicochemical. The method, then: The measurements were carried out using an Agilent 1100 LC system with a 50*4.6 Zorbax Eclipse C18 1.8 μm column (oven temperature 55° C., flow rate 2.0 ml/min).
The following mobile phases were used:
Mobile phase A: acetonitrile+1000 μl of formic acid/l
Mobile phase B: Millipore water+900 μl of formic acid/l

The subject of data set [2] is caterpillars of the armyworm (Spodoptera frugiperda). As to the kind of experiment: Spodoptera frugiperda test (SPODFR spray treatment). It counts as in vivo. To be noted: Spodoptera frugiperda, foliar, read-out: effect in % (caterpillars killed). The text has this: Solvent: 78.0 parts by weight of acetone
Data set [3] relates to larvae of the mustard beetle (Phaedon cochleariae). The experiment in a line: Phaedon test (PHAECO spray treatment). As to conditions: Phaedon cochleariae, in Brassica rapa, foliar, read-out: effect in % (beetle larvae killed).
Where [4] appears, read: reversed-phase HPLC, Zorbax Eclipse C18 column, by HPLC according to EEC Directive 79/831 Annex V.A8, read-out: log P.
Where [5] appears, read: application rate 100 g/ha, maize leaf discs.
The mark [6] stands for this setting: reversed-phase HPLC, Zorbax Eclipse C18 column, determined by HPLC according to EEC Directive 79/831 Annex V.A8, read-out: log P.

Take `O=C(NC1CC1)c1cc(Cl)cc(Cl)c1NC(=O)c1cc(Cn2nnnc2C(F)F)nn1-c1ncccc1Cl` [Example 469]: the chromatographic logP in data set [1] (log P) was determined as 2.44. Besides, the pest or weed control at 100 g/ha in data set [2] (in Zea mays) and in data set [3] was no less than 80% throughout.

Consider `Cc1cc(Cl)cc(C(=O)NC2CC2)c1NC(=O)c1cc(Cn2nnc(C(F)(F)F)n2)nn1-c1ncccc1C(F)(F)F` [Example 225], for which the chromatographic logP in data set [1] (setting [4]) worked out at 3.39. For the same molecule, the pest or weed control at 100 g/ha in data set [2] (setting [5]) and in data set [3] was no less than 80% each time.

Take `CC(C)NC(=O)c1cc(Cl)cc(Cl)c1NC(=O)c1cc(Cn2nnnc2C(F)(F)C(F)(F)F)nn1-c1ncccc1Cl` [Example 205]: the chromatographic logP in data set [1] (log P) was determined as 3.52. For the same molecule, the pest or weed control at 100 g/ha in data set [2] (in Zea mays) and in data set [3] was no less than 80% throughout.

The molecule `O=C(NC1CCC1)c1cc(Cl)cc(Cl)c1NC(=O)c1cc(Cn2nnc(C(F)(F)F)n2)nn1-c1ncccc1Cl` [Example 62] yielded a chromatographic logP in data set [1] (log P) of 3.51. Further, the pest or weed control at 100 g/ha in data set [2] (in Zea mays) and in data set [3] was no less than 80% throughout.

In data set [1] (log P), `CNC(=O)c1cc(C#N)cc(C)c1NC(=O)c1cc(Cn2nnc(C(F)(F)C(F)(F)F)n2)nn1-c1ncccc1Cl` [Example 213] yielded a chromatographic logP of 3.05. Also, the pest or weed control at 100 g/ha in data set [2] (in Zea mays) and in data set [3] was no less than 80% throughout.

For `Cc1cc(Br)cc(C(=O)NC(C)C)c1NC(=O)c1cc(Cn2nnc(C(F)(F)F)n2)nn1-c1ncccc1C(F)(F)F` [Example 249], the chromatographic logP in data set [1] (setting [4]) was 3.76. The pest or weed control at 100 g/ha in data set [2] (setting [5]) and in data set [3] was no less than 80% in each case.

`CNC(=O)c1cc(C#N)cc(C)c1NC(=O)c1cc(Cn2nnc(C(C)(C)C)n2)nn1-c1ncccc1Cl` [Example 101] registered a chromatographic logP in data set [1] (log P) of 2.62. Moreover, the pest or weed control at 100 g/ha in data set [2] (in Zea mays) and in data set [3] was no less than 80% throughout.

Take `CC(C)(C)NC(=O)c1cc(Cl)cc(Cl)c1NC(=O)c1cc(Cn2nnc(C(F)F)n2)nn1-c1ncccc1Cl` [Example 287]: the chromatographic logP in data set [1] (log P) came to 3.28. Further, the pest or weed control at 100 g/ha in data set [2] (in Zea mays) and in data set [3] was no less than 80% each time.

In the case of `Cc1cc(Br)cc(C(=O)NC(C)C)c1NC(=O)c1cc(Cn2nnc(C(F)(F)F)n2)nn1-c1ncccc1Br` [Example 355], the chromatographic logP in data set [1] (setting [4]) was determined as 3.66. Also, the pest or weed control at 100 g/ha in data set [2] (setting [5]) and in data set [3] was no less than 80% in each case.

With `Cc1cc(Cl)cc(C(=O)NC2CCC2)c1NC(=O)c1cc(Cn2nnc(C(F)F)n2)nn1-c1ncccc1Cl` [Example 260], the chromatographic logP in data set [1] (log P) was 3.09. The pest or weed control at 100 g/ha in data set [2] (in Zea mays) and in data set [3] was no less than 80% each time.

For `Cc1cc(C#N)cc(C(=O)NCC(F)(F)F)c1NC(=O)c1cc(Cn2nnnc2C(F)(F)F)nn1-c1ccccc1Cl` [Example 538], the chromatographic logP in data set [1] (setting [6]) amounted to 3.2. Further, the pest or weed control at 100 g/ha in data set [2] (setting [5]) and in data set [3] was no less than 80% in each case.

On to `Cc1cc(I)cc(C(=O)NC(C)C)c1NC(=O)c1cc(Cn2nnc(C(F)(F)F)n2)nn1-c1ncccc1Cl` [Example 71], for which the chromatographic logP in data set [1] (log P) amounted to 3.73. In addition, the pest or weed control at 100 g/ha in data set [2] (in Zea mays) and in data set [3] was no less than 80% throughout.

As for `Cc1cc(C)c(NC(=O)c2cc(Cn3nnc(C(F)(F)F)n3)nn2-c2ncccc2Cl)c(C(=O)NCC#N)c1` [Example 85], in data set [1] (log P), the chromatographic logP is 2.83. The pest or weed control at 100 g/ha in data set [2] (in Zea mays) and in data set [3] was no less than 80% each time.

Turning to `Cc1cc(Cl)cc(C(=O)NC2CC2)c1NC(=O)c1cc(Cn2nnc(C(F)(F)F)n2)nn1-c1ncccc1Cl` [Example 25], the chromatographic logP in data set [1] (log P) turned out to be 3.23. Also, the pest or weed control at 100 g/ha in data set [2] (in Zea mays) and in data set [3] was no less than 80% in each case.

`Cc1cc(Br)cc(C(=O)NC(C)C)c1NC(=O)c1cc(Cn2nnc(C(F)(F)F)n2)nn1-c1ncccc1Cl` [Example 39]: in data set [1] (log P), the chromatographic logP amounted to 3.57. Also, the pest or weed control at 100 g/ha in data set [2] (in Zea mays) and in data set [3] was no less than 80% throughout.

As for `Cc1cc(C#N)cc(C(=O)NC(C)C2CC2)c1NC(=O)c1cc(Cn2nnnc2C(F)(F)F)nn1-c1ncccc1Cl` (stereo not drawn) [Example 185], the chromatographic logP in data set [1] (log P) is 3. For the same molecule, the pest or weed control at 100 g/ha in data set [2] (in Zea mays) and in data set [3] was no less than 80% throughout.

As to `Cc1cc(Cl)cc(C(=O)NCC#N)c1NC(=O)c1cc(Cn2nnc(C(F)(F)F)n2)nn1-c1ncccc1C(F)(F)F` [Example 252], in data set [1] (setting [4]), the chromatographic logP was 3.28. Moreover, the pest or weed control at 100 g/ha in data set [2] (setting [5]) and in data set [3] was no less than 80% in each case.

In data set [1] (log P), `CCNC(=O)c1cc(Br)cc(C)c1NC(=O)c1cc(Cn2nnc(C(F)(F)F)n2)nn1-c1ncccc1Cl` [Example 34] returned a chromatographic logP of 3.32. Besides, the pest or weed control at 100 g/ha in data set [2] (in Zea mays) and in data set [3] was no less than 80% throughout.

Consider `Cc1cc(C#N)cc(C(=O)NC(C)C2CC2)c1NC(=O)c1cc(Cn2nnnc2C(F)(C(F)(F)F)C(F)(F)F)nn1-c1ncccc1Cl` (stereo not drawn) [Example 499], for which the chromatographic logP in data set [1] (setting [6]) came out at 3.8. For the same molecule, the pest or weed control at 100 g/ha in data set [2] (setting [5]) and in data set [3] was no less than 80% throughout.

In turn, `CNC(=O)c1cc(Cl)cc(Cl)c1NC(=O)c1cc(Cn2nnc(C(F)(C(F)(F)F)C(F)(F)F)n2)nn1-c1ncccc1Cl` [Example 386] came in with a chromatographic logP in data set [1] (log P) of 3.65. Besides, the pest or weed control at 100 g/ha in data set [2] (in Zea mays) and in data set [3] was no less than 80% throughout.

`CNC(=O)c1cc(Br)cc(C)c1NC(=O)c1cc(Cn2nnc(C(F)(F)C(F)(F)F)n2)nn1-c1ncccc1Cl` [Example 143] came in with a chromatographic logP in data set [1] (log P) of 3.5. The pest or weed control at 100 g/ha in data set [2] (in Zea mays) and in data set [3] was no less than 80% in each case.

In data set [1] (log P), `Cc1cc(I)cc(C(N)=O)c1NC(=O)c1cc(Cn2nnc(C(F)(C(F)(F)F)C(F)(F)F)n2)nn1-c1ncccc1Cl` [Example 382] displayed a chromatographic logP of 3.67. The pest or weed control at 100 g/ha in data set [2] (in Zea mays) and in data set [3] was no less than 80% each time.

For the molecule `CCNC(=O)c1cc(Br)cc(C)c1NC(=O)c1cc(Cn2nnc(C(F)(F)F)n2)nn1-c1ncccc1C(F)(F)F` [Example 244], in data set [1] (setting [4]), the chromatographic logP turned out to be 3.52. The pest or weed control at 100 g/ha in data set [2] (setting [5]) and in data set [3] was no less than 80% in each case.

In the case of `Cc1cc(Cl)cc(C(=O)NC(C)C2CC2)c1NC(=O)c1cc(Cn2nnc(C(F)(C(F)(F)F)C(F)(F)F)n2)nn1-c1ncccc1Cl` (stereo not drawn) [Example 366], the chromatographic logP in data set [1] (setting [4]) is 4.5. Further, the pest or weed control at 100 g/ha in data set [2] (setting [5]) and in data set [3] was no less than 80% in each case.

Turning to `Cc1cc(Cl)cc(C(=O)NC(C)C)c1NC(=O)c1cc(Cn2nnc(C(F)F)n2)nn1-c1ncccc1Cl` [Example 231], the chromatographic logP in data set [1] (log P) worked out at 2.95. Besides, the pest or weed control at 100 g/ha in data set [2] (in Zea mays) and in data set [3] was no less than 80% each time.

On to `O=C(NCC1CC1)c1cc(Cl)cc(Cl)c1NC(=O)c1cc(Cn2nnc(C(F)(C(F)(F)F)C(F)(F)F)n2)nn1-c1ncccc1Cl` [Example 392], for which, in data set [1] (setting [4]), the chromatographic logP is 4.17. Moreover, the pest or weed control at 100 g/ha in data set [2] (setting [5]) and in data set [3] was no less than 80% each time.

On to `CNC(=O)c1cc(Cl)cc(Cl)c1NC(=O)c1cc(Cn2nnc(C(F)F)n2)nn1-c1ncccc1Cl` [Example 282], for which the chromatographic logP in data set [1] (log P) was 2.48. The pest or weed control at 100 g/ha in data set [2] (in Zea mays) and in data set [3] was no less than 80% throughout.

Take `Cc1cc(Cl)cc(C(=O)NC(C)(C)C)c1NC(=O)c1cc(Cn2nnc(C(F)F)n2)nn1-c1ncccc1Cl` [Example 258]: the chromatographic logP in data set [1] (log P) was 3.32. Moreover, the pest or weed control at 100 g/ha in data set [2] (in Zea mays) and in data set [3] was no less than 80% each time.

Take `Cc1cc(Br)cc(C(=O)NC(C)C2CC2)c1NC(=O)c1cc(Cn2nnc(C(F)F)n2)nn1-c1ncccc1Cl` (stereo not drawn) [Example 297]: the chromatographic logP in data set [1] (log P) was 3.36. Moreover, the pest or weed control at 100 g/ha in data set [2] (in Zea mays) and in data set [3] was no less than 80% throughout.

On to `Cc1cc(C#N)cc(C(=O)NCC(F)(F)F)c1NC(=O)c1cc(Cn2nnc(C(F)(F)F)n2)nn1-c1ccccc1Cl` [Example 537], for which the chromatographic logP in data set [1] (setting [6]) amounted to 3.48. In addition, the pest or weed control at 100 g/ha in data set [2] (setting [5]) and in data set [3] was no less than 80% in each case.

The molecule `Cc1cc(Cl)cc(C(N)=O)c1NC(=O)c1cc(Cn2nnc(C(F)(F)C(F)(F)F)n2)nn1-c1ncccc1Cl` [Example 130] came in with a chromatographic logP in data set [1] (log P) of 3.15. Moreover, the pest or weed control at 100 g/ha in data set [2] (in Zea mays) and in data set [3] was no less than 80% each time.

In turn, `CCNC(=O)c1cc(C#N)cc(C)c1NC(=O)c1cc(Cn2nnc(C(F)(C(F)(F)F)C(F)(F)F)n2)nn1-c1ncccc1Cl` [Example 369] returned a chromatographic logP in data set [1] (log P) of 3.57. Further, the pest or weed control at 100 g/ha in data set [2] (in Zea mays) and in data set [3] was no less than 80% in each case.

Turning to `CCNC(=O)c1cc(C#N)cc(C)c1NC(=O)c1cc(Cn2nnc(C(F)(F)F)n2)nn1-c1ncccc1C(F)(F)F` [Example 234], the chromatographic logP in data set [1] (setting [4]) was 3.07. Moreover, the pest or weed control at 100 g/ha in data set [2] (setting [5]) and in data set [3] was no less than 80% throughout.

For the molecule `Cc1cc(C#N)cc(C(=O)NCC(F)F)c1NC(=O)c1cc(Cn2nnc(C(F)(C(F)(F)F)C(F)(F)F)n2)nn1-c1ncccc1Cl` [Example 375], the chromatographic logP in data set [1] (setting [4]) was determined as 3.57. Further, the pest or weed control at 100 g/ha in data set [2] (setting [5]) and in data set [3] was no less than 80% throughout.
